Source: US7056275B2, “Radiotherapy” (Algeta A/S, priority 2000, dated 2006)
Where two headings read alike, the source gives them in different places.

Columns and labels:
[1] = for Tissue distribution, Blood / Tissue distribution, Brain / Tissue distribution, Femur / Tissue distribution, Heart / Tissue distribution, Kidney / Tissue distribution, L.I. / Tissue distribution, Liver / Tissue distribution, Lung / Tissue distribution, Muscle / Tissue distribution, Rib / Tissue distribution, S.I. / Tissue distribution, Skull / Tissue distribution, Spleen / Tissue distribution, Stomach: +/- SD; for Femur/Blood ratio / Femur/Kidneys ratio / Femur/Liver ratio / Femur/Spleen ratio: Balb C mice; for femur to blood and femur to tissue ratios compared to cationic radium-223 (in words): chelates at 4 hours vs radium-223 at 6 hours after injection, for some organs
Description: The biodistribution of thorium and actinium bound to polyphosphonate was studied in mice.
Balb/C mice with a bodyweight in the range of 11–16 g were used in the biodistribution experiments. The compounds were administered by intravenous injection of 100–200 μl of the preparation for each animal in paired label arrangement. The compounds ^228Ac-DOTMP, ^227Th-DOTMP, ^227Th-DTMP and ^227Th-acetate/MES were investigated. Approximately 5 kBq of ^[…] and 5 kBq of ^228Ac was injected. Animals were sacrificed by cervical dislocation. The tissue distribution was determined on 3 mice for each pair of compounds. The tissue distribution was determined after 4 hours for ^228Ac-DOTMP, ^227Th-DOTMP, ^227Th-DTMP and ^227Th-acetate.
In general, radioactivity in the tissue samples was measured by using a NaI (Tl) well-type detector and by liquid scintillation counting (Beckmann LS6500, Beckmann, Fullerton, Calif., USA). ^227Th was measured by using a HPGe detector (Canberra, Conn, USA) and also by liquid scintillation counting after dissolution of tissue samples and allowing decay of ^228Ac. ^228Ac was measured by the HPGe detector and the NaI(Tl) detector.
Samples of the radioactive preparations of the nuclides were used as references to account for physical decay and radiation crossover in the detection procedures.

[2] = cationic species, mice, published data; cited from earlier work
[3] = 4 hours after injection, i.v., Balb/C mice
[4] = bone seeking chelates, 4 hours after injection
[5] = cationic radium-223, 6 hours after injection

Compound	Tissue distribution, Blood [1, 3] [% I.D./g]	Tissue distribution, Brain [1, 3] [% I.D./g]	Tissue distribution, Femur [1, 3] [% I.D./g]	Tissue distribution, Heart [1, 3] [% I.D./g]	Tissue distribution, Kidney [1, 3] [% I.D./g]	Tissue distribution, L.I. [1, 3] [% I.D./g]	Tissue distribution, Liver [1, 3] [% I.D./g]	Tissue distribution, Lung [1, 3] [% I.D./g]	Tissue distribution, Muscle [1, 3] [% I.D./g]	Tissue distribution, Rib [1, 3] [% I.D./g]	Tissue distribution, S.I. [1, 3] [% I.D./g]	Tissue distribution, Skull [1, 3] [% I.D./g]	Tissue distribution, Spleen [1, 3] [% I.D./g]	Tissue distribution, Stomach [1, 3] [% I.D./g]	Femur/Blood ratio [1, 4]	Femur/Kidneys ratio [1, 4]	Femur/Liver ratio [1, 4]	Femur/Spleen ratio [1, 4]	femur to blood and femur to tissue ratios compared to cationic radium-223 (in words) [1]	also measured
O=P([O-])(O)CN1CCN(CP(=O)([O-])O)CCN(CP(=O)([O-])O)CCN(CP(=O)([O-])O)CC1.[227Th+4] [Th-227 DOTMP]	<0.1	<0.1	20.55 ± 2.21	<0.1	3.43 ± 1.70	0.19 ± 0.10	0.39 ± 0.19	0.18 ± 0.09	0.29 ± 0.17	11.06 ± 3.81	0.14 ± 0.08	10.8 ± 2.94	0.51 ± 0.14	0.15 ± 0.05	>196	6.0	52.7	40.3	better	Tissue distribution, Urine ([1]; 4 hours after injection, i.v., Balb/C mice, n = 1): 21.1 % I.D./g
CC(=O)[O-].CC(=O)[O-].CC(=O)[O-].CC(=O)[O-].[227Th+4] [^227Th-acetate, reference compound]	1.2 ± 0.4	<0.1	23.4 ± 6.9	2.6 ± 0.2	7.7 ± 0.7	1.7 ± 0.1	56.5 ± 9.4	2.6 ± 0.4	1.1	14.6 ± 4.4	2.3 ± 0.1	18.9 ± 7.6	14.2 ± 2.8	4.6 ± 1.0						bone uptake (in words) ([1]; 4 hours after injection, mice): high and similar to the observed values with the bone-seeking polyphosphonate complexing agents; suitability for in vivo bone targeting given affinity for soft tissues, e.g. liver and spleen (in words) ([1]; 4 hours after injection, mice): unsuitable for in vivo bone targeting
CC(=O)[O-].CC(=O)[O-].CC(=O)[O-].[Ac+3] [cationic actinium]																				selective bone uptake relative to soft tissue uptake (in words) [2]: does not show sufficient selective bone uptake relative to soft tissue uptake
[223Ra] [^223Ra, reference compound]																				Femur/Blood ratio [1, 5]: 129; Femur/Kidneys ratio [1, 5]: 6.4; Femur/Liver ratio [1, 5]: 29.1; Femur/Spleen ratio [1, 5]: 6.4
O=P([O-])(O)CN(CCN(CP(=O)([O-])O)CP(=O)([O-])O)CCN(CP(=O)([O-])O)CP(=O)(O)O.[227Th+4] [Th-227 DTMP]	<0.1	<0.1	19.58 ± 3.58	<0.1	1.38 ± 0.54	0.15 ± 0.03	0.40 ± 0.43	0.12 ± 0.04	0.63 ± 0.33	8.83 ± 5.06	0.56 ± 0.63	12.3 ± 3.14	0.13 ± 0.04	0.70 ± 0.80	>196	14.2	49	151	better	
O=P([O-])(O)CN1CCN(CP(=O)([O-])O)CCN(CP(=O)(O)O)CCN(CP(=O)([O-])O)CC1.[228Ac+3] [Ac-228 DOTMP]	<0.1	<0.1	20.67 ± 2.23	<0.1	2.7 ± 2.4	0.20 ± 0.11	1.26 ± 0.9	0.20 ± 0.10	0.30 ± 0.11	10.5 ± 3.5	0.14 ± 0.07	10.7 ± 2.7	0.51 ± 0.10		>196	7.7	16.4	41.3	better	
